This note sets out measurements from US6664297B1, “Methods for inhibition and dissolution of amyloidoses by administration of compositions comprising 2,4-dinitrophenol” (priority 2000, dated 2003).

Where a name gives a salt, the structure may show the parent alone.

The target in series [1] is T1, Aβ1-42 (Homo sapiens, UniProt P05067).
T1 construct: purchased Bachem Inc; host or cells: synthetic peptide
As to the kind of experiment: Disaggregation of aggregated Aβ1-42 followed by 90° light scattering. In kind it is biochemical. The note with it: for IC50: aggregated Aβ1-42, light scattering measured 1.5 hour after addition, 23° C., read-out: IC50 for disaggregation of Aβ; for inhibition at 200 µM: read-out: % decrease in light scattering. The method, then:
(§1) Aβ peptides of different chain-lengths (Bachem Inc., Torrance, Calif., USA) were freshly dissolved from lyophilized powder in 50% (v/v) trifluoroethanol (TFE) in PBS. Aggregation was triggered by dilution of aliquots from the stock solution into PBS (resulting in ≦0.5% (v/v) residual TFE), and was followed as a function of time by light scattering measurements. Light scattering was measured in sealed cuvettes at 500 nm on ISS Inc. (Champaign, Ill., USA) PC1 or Hitachi F-4500 spectrofluorometers. […] Low temperature experiments were performed using a thermostated cell holder and flushing the cell compartment with N2 to avoid condensation. All results shown represent equilibrium light scattering values obtained for each sample.
Concentrated peptide stock solutions were prepared in 50% (v/v) trifluoroethanol. Aggregation was triggered by dilution in phosphate-buffered saline (PBS) and was followed by means of light-scattering measurements (FIGS. 1A, 1B, 1C), thioflavin T fluorescence (not shown) and electron microscopy (FIG. 2). Equilibrium light scattering values were used as an index of the extent of aggregation under different experimental conditions.
One class of compounds we tested were the nitrophenols. The disaggregation of Aβ1-42 by nitrophenols was determined. 3-nitrophenol (NP; O) or 2,4-dinitrophenol (DNP; □) were added to aggregated samples prepared as described above. Light scattering intensities were measured 1.5 hour after addition of the drugs. Symbols represent averages±S.D. from 3 experiments.
Further results for a series of aromatic compounds are shown in Table 1, at aromatic compound concentrations of 200 micromolar.

The target in series [2] is T1, Aβ1-42. As to the kind of experiment: Transmission electron microscopy of Aβ1-42 fibril formation. In kind it is biochemical. The method, then: Aggregated samples were also examined by transmission electron microscopy. In this case, Aβ (22 μM) was incubated in PBS in the absence or in the presence of nitrophenols, as indicated. After 48 hours, samples were stained with 1% uranyl acetate.
Confirmation that the light scattering intensity measurements were in fact related to the formation of amyloid fibrilar aggregates was made by transmission electron microscopy analysis using uranyl acetate staining.
An Aβ1-42 sample incubated for 2 days in the presence of 20 μM DNP is shown in FIG. 2C (Magnification: 52,500×).

The test system of series [3] is hippocampal neurons. Description: Aβ neurotoxicity in hippocampal neuron cultures, morphology by anti-Tau immunostaining. In kind it is cell-based, rat. The note with it: Aβ1-42 44 μM, 72 hours. The method, then: In order to evaluate the efficacy of the phenol derivatives, control assays were also performed in the absence of the aromatic or heteroaromatic compounds described herein.
Med., 3, 1376-82, 1997) with minor modifications. […] Daily observations were carried out during this period.
Aβ1-42 (44 μM) was added to the culture medium containing neurons and incubation was continued for 72 hours. […] Furthermore, the remaining cell bodies of Aβ-treated neurons were attached to the plate, but their neurites were retracted and thin, and sometimes detached from the plate.

The next series has as its target T2, amyloid deposits (Homo sapiens, UniProt P05067).
T2 construct: purchased Bachem Inc; host or cells: synthetic peptide
As to the kind of experiment: Rat model of cerebral Aβ deposition (intrahippocampal co-injection). The note with it: 3 nmol Aβ1-42 co-injected with DNP 0.76 mM into hippocampus; 8 days; n=4, p=0.05. It counts as in vivo. The method, then:
To evaluate the effects of nitrophenols as inhibitors of amyloid deposition in vivo, we used a rat model of cerebral Aβ deposition. Aβ was injected alone or in the presence of DNP into the left or right hippocampi of rats, respectively, and the areas occupied by amyloid deposits in either side were measured on consecutive sections stained with thioflavin S. The experimental protocol used was designed to minimize the influence of individual variability in animal response by injecting Aβ into one hemisphere and Aβ plus DNP into the other hemisphere for each individual rat.
Male adult Wistar rats (280-320 g) were anesthetized with chloropent (3.3 ml/kg) and placed into a stereotaxic frame. The left hippocampus (standard coordinates: A 5.0; L 2.0; H 6.8) was injected with 3 nmol of Aβ1-42 (from a previously diluted stock in 55 μl of PBS containing 9% DMSO). A volume of 1.5 μl was administered at a constant flow rate during a time period of 15 minutes. […] Images were analyzed with ScionImage to measure the areas occupied by amyloid aggregates.
FIG. 5A is a schematic diagram of the injection protocol and representative hippocampal sections visualized by Thioflavine-S staining or autofluorescence, as indicated. FIGS. 5B-5E show quantitative analysis of the area of amyloid deposits in consecutive hippocampal sections as described above. […]

In series [4] the test system is hippocampal neurons. As to the kind of experiment: Cell viability of hippocampal neuron cultures by trypan blue exclusion. The note with it: no Aβ.
Protocol: Hippocampi from 18-day-old rat embryos were dissected and cultured as previously described by Martins et al., Nat. Med., 3, 1376-82, 1997) with minor modifications. Cells were plated on glass coverslips previously coated with 1.5 μg/ml polyornithine (Sigma) in Basal Eagle's Medium (Gibco) enriched with 10% fetal calf serum (Hyclone) for the first 24 hours of culture. After that, proliferation of nonneuronal cells was inhibited with 10 μM arabinosyl cytoside and the serum concentration was lowered to 2%. Aβ1-42 (44 μM), in the absence or in the presence of nitrophenols, was added after 48 hours of culture and kept for three days. Control cultures consisting of neurons cultured in growth medium alone or in the presence of residual TFE (0.5% v/v) were also prepared. Daily observations were carried out during this period.
Cell viability in cultures incubated with or without Aβ (as described above) was assessed by trypan blue exclusion. Immediately before counting, the medium was removed, cultures were washed once with PBS and incubated for 5 min with 0.4% trypan blue. Randomly chosen fields were counted in a Zeiss Televal microscope. Percentages of live neurons are expressed relative to the total number of neurons observed in each field. Five independent fields were counted for each experimental condition (which were carried out in triplicate).
A further series concerns the target T3, Aβ1-28 (Homo sapiens, UniProt P05067).
T3 construct: purchased Bachem Inc; host or cells: synthetic peptide
As to the kind of experiment: Disaggregation of fibrillar Aβ1-28 by GdnHCl, light scattering. It counts as biochemical. As to conditions: Aβ1-28 10 μM, 1 hour incubation. The method, then: as §1
(§2) Stabilities of the fibrillar amyloid aggregates of peptides Aβ1-28, Aβ1-42 and Aβ1-43 in the presence of guanidine hydrochloride were compared. Measurements of the reduction in light scattering intensity as a function of the concentration of guanidine hydrochloride were used as an index of amyloid aggregate dissolution. Samples were incubated for 1 hour in the presence of the indicated concentrations of GdnHCl prior to measurements. Different symbols correspond to Aβ1-28 (□), Aβ1-42 (O) and Aβ1-43 (Δ), and represent averages±S.D. from 3-5 determinations.

The target of series [5] is T1, Aβ1-42. As to the kind of experiment: Disaggregation of fibrillar Aβ1-42 by GdnHCl, light scattering. In kind it is biochemical. As to conditions: Aβ1-42 10 μM, 1 hour incubation. The method, then: as §1, §2
Where [6] appears, read: aromatic compound concentration 200 micromolar.

T1 sequence (P05067 672-713): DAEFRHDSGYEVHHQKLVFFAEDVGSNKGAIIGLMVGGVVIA
T2 sequence (P05067 672-713): as above
T3 sequence (P05067 672-699): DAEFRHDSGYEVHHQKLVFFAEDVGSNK

One may read the IC50 as the concentration needed to halve the response being measured. For `O=[N+]([O-])c1ccc(O)c([N+](=O)[O-])c1` [2,4-dinitrophenol], the “light scattering from Aβ suspensions (disaggregation of fibrillar amyloid)” value on Aβ1-42 [1] (DNP 20 μM) is “completely abolished light scattering”. Also, the IC50 at Aβ1-42 [1] is roughly 7 µM. Besides, the inhibition at 200 µM on Aβ1-42 [1] (setting [6]) stood at 100%. Further, the “fibrils seen by electron microscopy” value on Aβ1-42 [2] (Aβ1-42 22 μM incubated 2 days in PBS with 20 μM DNP) is on record as “completely devoid of fibrils”. Also, the “protection against Aβ neurotoxicity (neuron morphology)” value with hippocampal neurons [3] (20 μM DNP) was “marked protection against neurotoxicity”. Besides, at amyloid deposits, the “reduction in the volume of amyloid deposits relative to Aβ injected alone” value amounted to 86±17%. Besides, in the series with hippocampal neurons [4] (20 μM DNP), the “effect of compound alone on survival of neurons in culture” value is “no effects”. As for `Nc1cc(Cl)ccc1O` [2-amino-4-chlorophenol], on Aβ1-42 [1] (setting [6]), the inhibition at 200 µM turned out to be 12%. For `Nc1cc([N+](=O)[O-])ccc1O` [2-amino-4-nitrophenol], the inhibition at 200 µM at Aβ1-42 [1] (setting [6]) turned out to be 92%. For `Nc1ccc([N+](=O)[O-])cc1O` [2-amino-5-nitrophenol], at Aβ1-42 [1] (setting [6]), the inhibition at 200 µM is 44%. Turning to `Cc1ccc(O)cc1C` [3,4-dimethyl-phenol], the inhibition at 200 µM at Aβ1-42 [1] (setting [6]) came out at 40%. Turning to `Nc1cccc(O)c1` [3-amino-phenol], the inhibition at 200 µM at Aβ1-42 [1] (setting [6]) worked out at 18%. For the compound `O=[N+]([O-])c1cccc(O)c1` [3-nitrophenol], the IC50 on Aβ1-42 [1] is roughly 80 µM. In addition, the inhibition at 200 µM on Aβ1-42 [1] (setting [6]) was 60%. Further, the “fibrils seen by electron microscopy” value at Aβ1-42 [2] (Aβ1-42 22 μM incubated 2 days in PBS with 100 μM NP) is reported as “completely devoid of fibrils”. Besides, the “protection against Aβ neurotoxicity (neuron morphology)” value with hippocampal neurons [3] (100 μM NP) was “marked protection against neurotoxicity”. Further, the “effect of compound alone on survival of neurons in culture” value in the series with hippocampal neurons [4] (100 μM NP) is reported as “no effects”. Turning to `COc1ccc(N)cc1` [4-amino-anisole], the inhibition at 200 µM on Aβ1-42 [1] (setting [6]) turned out to be 48%.

Turning to `O=[N+]([O-])c1ccc(Br)cc1` [4-bromo-nitrobenzene], the “% decrease in light scattering” value at Aβ1-42 [1] (setting [6]) was found to be 37%.

As for `Oc1ccc(Br)cc1` [4-bromo-phenol], the inhibition at 200 µM at Aβ1-42 [1] (setting [6]) is 25%.

As for `Oc1ccc(Cl)cc1` [4-chloro-phenol], the inhibition at 200 µM on Aβ1-42 [1] (setting [6]) turned out to be 20%. Take `CCc1ccc(O)cc1` [4-ethyl-phenol]: the inhibition at 200 µM on Aβ1-42 [1] (setting [6]) was determined as 0%.

In the case of `COc1ccc([N+](=O)[O-])cc1` [4-nitro-anisole], the inhibition at 200 µM on Aβ1-42 [1] (setting [6]) turned out to be 49%.

As for `N=C(N)N` [GdnHCl, guanidine hydrochloride], the “GdnHCl concentration for complete disaggregation” value at Aβ1-28 is given as 3 M. Further, the “GdnHCl concentration for full disaggregation” value at Aβ1-42 [5] lay within 5 to 6 M.
